{"source": "ChEMBL document CHEMBL1201862", "about": "“PubChem BioAssay data set” (2004)", "experiment_in_all_cases": "inhibition of tumour cell growth, NCI panel, 48 h", "key": {"[1]": {"tested_on": "OVCAR-5"}, "[2]": {"tested_on": "U-251"}, "[3]": {"tested_on": "OVCAR-4"}, "[4]": {"tested_on": "MDA-MB-231"}, "[5]": {"tested_on": "UO-31"}, "[6]": {"tested_on": "SF-539"}, "[7]": {"tested_on": "NCI-H460"}, "[8]": {"tested_on": "IGROV-1"}, "[9]": {"tested_on": "SW-620"}, "[10]": {"tested_on": "HOP-92"}, "[11]": {"tested_on": "786-0"}, "[12]": {"tested_on": "SF-295"}, "[13]": {"tested_on": "MOLT-4"}, "[14]": {"tested_on": "HOP-62"}, "[15]": {"tested_on": "HCT-116"}, "[16]": {"tested_on": "HL-60"}, "[17]": {"tested_on": "EKVX"}, "[18]": {"tested_on": "UACC-257"}, "[19]": {"tested_on": "LOX IMVI"}, "[20]": {"tested_on": "SK-MEL-2"}, "[21]": {"tested_on": "HCT-15"}, "[22]": {"tested_on": "M14"}, "[23]": {"tested_on": "KM12"}, "[24]": {"tested_on": "ACHN"}, "[25]": {"tested_on": "TK-10"}, "[26]": {"tested_on": "NCI-H23"}, "[27]": {"tested_on": "MCF7"}, "[28]": {"tested_on": "SNB-19"}, "[29]": {"tested_on": "SNB-75"}, "[30]": {"tested_on": "CAKI-1"}, "[31]": {"tested_on": "SN12C"}, "[32]": {"tested_on": "OVCAR-3"}, "[33]": {"tested_on": "HCC 2998"}, "[34]": {"tested_on": "MDA-MB-435"}, "[35]": {"tested_on": "OVCAR-8"}, "[36]": {"tested_on": "SK-OV-3"}, "[37]": {"tested_on": "A549"}, "[38]": {"tested_on": "NCI-H226"}, "[39]": {"tested_on": "HT-29"}, "[40]": {"tested_on": "COLO 205"}, "[41]": {"tested_on": "DU-145"}, "[42]": {"tested_on": "NCI/ADR-RES"}, "[43]": {"tested_on": "PC-3"}, "[44]": {"tested_on": "T47D"}, "[45]": {"tested_on": "SK-MEL-5"}, "[46]": {"tested_on": "SK-MEL-28"}, "[47]": {"tested_on": "MDA-N"}, "[48]": {"tested_on": "UACC-62"}, "[49]": {"tested_on": "K562"}, "[50]": {"tested_on": "SR"}, "[51]": {"tested_on": "NCI-H522"}, "[52]": {"tested_on": "Malme-3M"}, "[53]": {"tested_on": "SF-268"}, "[54]": {"tested_on": "CCRF-CEM"}, "[55]": {"tested_on": "RPMI-8226"}, "[56]": {"tested_on": "RXF 393"}}, "note": "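Following 48 hours of exposure in 96-well plates, responses at five concentrations were used to interpolate endpoints linearly. GI50 marks 50% less growth.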 The source made the active and inactive calls. Cut-off read from the data, not from the text of the source: active = GI50 up to about 1.1 µM and inactive = higher."}
{"smiles": "O=C1Nc2ccccc2/C1=N/Nc1nc(-c2ccc(Cl)c(Cl)c2)cs1", "values": [{"measurement": "GI50", "setting": "[1]", "value": "> 100 µM (inactive)"}, {"measurement": "GI50", "setting": "[2]", "value": "77.4 µM (inactive)"}, {"measurement": "GI50", "setting": "[3]", "value": "77.6 µM (inactive)"}, {"measurement": "GI50", "setting": "[4]", "value": "> 100 µM (inactive)"}, {"measurement": "GI50", "setting": "[5]", "value": "7.01 µM (inactive)"}, {"measurement": "GI50", "setting": "[6]", "value": "73.5 µM (inactive)"}, {"measurement": "GI50", "setting": "[7]", "value": "17.6 µM (inactive)"}, {"measurement": "GI50", "setting": "[8]", "value": "9.73 µM (inactive)"}, {"measurement": "GI50", "setting": "[9]", "value": "> 100 µM (inactive)"}, {"measurement": "GI50", "setting": "[10]", "value": "> 100 µM (inactive)"}, {"measurement": "GI50", "setting": "[11]", "value": "> 100 µM (inactive)"}, {"measurement": "GI50", "setting": "[12]", "value": "> 100 µM (inactive)"}, {"measurement": "GI50", "setting": "[13]", "value": "16 µM (inactive)"}, {"measurement": "GI50", "setting": "[14]", "value": "> 100 µM (inactive)"}, {"measurement": "GI50", "setting": "[15]", "value": "90.6 µM (inactive)"}, {"measurement": "GI50", "setting": "[16]", "value": "0.232 µM (active)"}, {"measurement": "GI50", "setting": "[17]", "value": "> 100 µM (inactive)"}, {"measurement": "GI50", "setting": "[18]", "value": "> 100 µM (inactive)"}, {"measurement": "GI50", "setting": "[19]", "value": "> 100 µM (inactive)"}, {"measurement": "GI50", "setting": "[20]", "value": "43 µM (inactive)"}, {"measurement": "GI50", "setting": "[21]", "value": 6.24, "unit": "µM"}, {"measurement": "GI50", "setting": "[22]", "value": "78.5 µM (inactive)"}, {"measurement": "GI50", "setting": "[23]", "value": "29.6 µM (inactive)"}, {"measurement": "GI50", "setting": "[24]", "value": "87.1 µM (inactive)"}, {"measurement": "GI50", "setting": "[25]", "value": "66.2 µM (inactive)"}, {"measurement": "GI50", "setting": "[26]", "value": "46.1 µM (inactive)"}, {"measurement": "GI50", "setting": "[27]", "value": "37.2 µM (inactive)"}, {"measurement": "GI50", "setting": "[28]", "value": "> 100 µM (inactive)"}, {"measurement": "GI50", "setting": "[29]", "value": "49.3 µM (inactive)"}, {"measurement": "GI50", "setting": "[30]", "value": "5.69 µM (inactive)"}, {"measurement": "GI50", "setting": "[31]", "value": "> 100 µM (inactive)"}, {"measurement": "GI50", "setting": "[32]", "value": "4.75 µM (inactive)"}, {"measurement": "GI50", "setting": "[33]", "value": "> 100 µM (inactive)"}, {"measurement": "GI50", "setting": "[34]", "value": "72.1 µM (inactive)"}, {"measurement": "GI50", "setting": "[35]", "value": "47.4 µM (inactive)"}, {"measurement": "GI50", "setting": "[36]", "value": "> 100 µM (inactive)"}, {"measurement": "GI50", "setting": "[37]", "value": "> 100 µM (inactive)"}, {"measurement": "GI50", "setting": "[38]", "value": "> 100 µM (inactive)"}, {"measurement": "GI50", "setting": "[39]", "value": "56 µM (inactive)"}, {"measurement": "GI50", "setting": "[40]", "value": "29.9 µM (inactive)"}, {"measurement": "GI50", "setting": "[41]", "value": "92 µM (inactive)"}, {"measurement": "GI50", "setting": "[42]", "value": "> 100 µM (inactive)"}, {"measurement": "GI50", "setting": "[43]", "value": "24 µM (inactive)"}, {"measurement": "GI50", "setting": "[44]", "value": "26 µM (inactive)"}, {"measurement": "GI50", "setting": "[45]", "value": "20 µM (inactive)"}, {"measurement": "GI50", "setting": "[46]", "value": "> 100 µM (inactive)"}, {"measurement": "GI50", "setting": "[47]", "value": "47 µM (inactive)"}]}
{"smiles": "CN1C(CC(O)c2ccccc2)CCCC1CC(O)(c1ccccc1)c1ccccc1", "note": "(stereo not drawn)", "values": [{"measurement": "GI50", "setting": "[1]", "value": "15 µM (inactive)"}, {"measurement": "GI50", "setting": "[2]", "value": "15.1 µM (inactive)"}, {"measurement": "GI50", "setting": "[4]", "value": "22.6 µM (inactive)"}, {"measurement": "GI50", "setting": "[5]", "value": "8.36 µM (inactive)"}, {"measurement": "GI50", "setting": "[6]", "value": "13.6 µM (inactive)"}, {"measurement": "GI50", "setting": "[8]", "value": "17.2 µM (inactive)"}, {"measurement": "GI50", "setting": "[9]", "value": "19.4 µM (inactive)"}, {"measurement": "GI50", "setting": "[11]", "value": "15.7 µM (inactive)"}, {"measurement": "GI50", "setting": "[12]", "value": "16.9 µM (inactive)"}, {"measurement": "GI50", "setting": "[13]", "value": "17.5 µM (inactive)"}, {"measurement": "GI50", "setting": "[14]", "value": "14.3 µM (inactive)"}, {"measurement": "GI50", "setting": "[15]", "value": "14.9 µM (inactive)"}, {"measurement": "GI50", "setting": "[48]", "value": "21 µM (inactive)"}, {"measurement": "GI50", "setting": "[16]", "value": "17.3 µM (inactive)"}, {"measurement": "GI50", "setting": "[17]", "value": "26.4 µM (inactive)"}, {"measurement": "GI50", "setting": "[18]", "value": "17.6 µM (inactive)"}, {"measurement": "GI50", "setting": "[19]", "value": "20.3 µM (inactive)"}, {"measurement": "GI50", "setting": "[21]", "value": 16.5, "unit": "µM"}, {"measurement": "GI50", "setting": "[49]", "value": "29 µM (inactive)"}, {"measurement": "GI50", "setting": "[50]", "value": "18.7 µM (inactive)"}, {"measurement": "GI50", "setting": "[22]", "value": "16.8 µM (inactive)"}, {"measurement": "GI50", "setting": "[23]", "value": "18.5 µM (inactive)"}, {"measurement": "GI50", "setting": "[24]", "value": "19.7 µM (inactive)"}, {"measurement": "GI50", "setting": "[51]", "value": "19.9 µM (inactive)"}, {"measurement": "GI50", "setting": "[25]", "value": "18.5 µM (inactive)"}, {"measurement": "GI50", "setting": "[26]", "value": "16.7 µM (inactive)"}, {"measurement": "GI50", "setting": "[27]", "value": "20.9 µM (inactive)"}, {"measurement": "GI50", "setting": "[28]", "value": "17.1 µM (inactive)"}, {"measurement": "GI50", "setting": "[29]", "value": "19.1 µM (inactive)"}, {"measurement": "GI50", "setting": "[52]", "value": "18.2 µM (inactive)"}, {"measurement": "GI50", "setting": "[30]", "value": "75.2 µM (inactive)"}, {"measurement": "GI50", "setting": "[31]", "value": "17.8 µM (inactive)"}, {"measurement": "GI50", "setting": "[32]", "value": "15.6 µM (inactive)"}, {"measurement": "GI50", "setting": "[53]", "value": "18.7 µM (inactive)"}, {"measurement": "GI50", "setting": "[33]", "value": "22.9 µM (inactive)"}, {"measurement": "GI50", "setting": "[35]", "value": "20.8 µM (inactive)"}, {"measurement": "GI50", "setting": "[36]", "value": "21.4 µM (inactive)"}, {"measurement": "GI50", "setting": "[37]", "value": "22.1 µM (inactive)"}, {"measurement": "GI50", "setting": "[38]", "value": "21.1 µM (inactive)"}, {"measurement": "GI50", "setting": "[39]", "value": "12.1 µM (inactive)"}, {"measurement": "GI50", "setting": "[40]", "value": "16.4 µM (inactive)"}, {"measurement": "GI50", "setting": "[41]", "value": "20.8 µM (inactive)"}, {"measurement": "GI50", "setting": "[54]", "value": "19.8 µM (inactive)"}, {"measurement": "GI50", "setting": "[55]", "value": "17.1 µM (inactive)"}, {"measurement": "GI50", "setting": "[42]", "value": "16.9 µM (inactive)"}, {"measurement": "GI50", "setting": "[43]", "value": "18.2 µM (inactive)"}, {"measurement": "GI50", "setting": "[44]", "value": "21 µM (inactive)"}, {"measurement": "GI50", "setting": "[56]", "value": "14.9 µM (inactive)"}, {"measurement": "GI50", "setting": "[45]", "value": "16.6 µM (inactive)"}, {"measurement": "GI50", "setting": "[46]", "value": "16 µM (inactive)"}, {"measurement": "GI50", "setting": "[47]", "value": "18.5 µM (inactive)"}]}
